Results on 17 molecules are retold here after US20160194336A1, “P38 MAPK INHIBITORS FOR THE TREATMENT OF INFLAMMATORY DISEASES” (ALLINKY BIOPHARMA, priority 2012, published 2016).

Data set [1] addresses T1, p38alpha (Homo sapiens, UniProt Q16539).
T1 construct: purchased Invitrogen PV3305
As to the kind of experiment: p38 cascade kinase reaction (inactive p38alpha, MKK6, ATF2, ADP-Glo). It counts as biochemical. The conditions noted are these: read-out: inhibition p38a/ATF-2 (p38 cascade); for inhibition at 100 µM: compound 100 μM; for inhibition at 10 µM: compound 10 μM. The method, then: Purified recombinant activated p38alpha (10 nM)(ProQinase) was preincubated 10 minutes at 30° C. with the compound of interest at concentrations between 1 and 100 µM in duplicate in a final volume of 30 ul of kinase buffer (Hepes 60 mM pH 7.5, MgCl2 3 mM, MnCl2 3 mM, Sodium Orthovanadate 3 μM, DTT 1.2 mM). After preincubation, peptide substrate (SignalChem #P03-58) and ATP were added to a final concentration of 10 μM and 100 μM respectively, and then incubated 40 minutes at 30° C. for the kinase reaction. Phosphorylation was analyzed with ADP-GloM (Promega #V9101) and emitted luminescence was measured with BMG Fluostar microplate reader.
(§1) After preincubation, MKK6 (ProQinase), ATF2 (ProQinase) and ATP were added to a final concentration of 10 nM, 5 μM and 10 μM respectively, then incubated 40 minutes at 30° C. and analyzed with ADP-Glo™.
For orientation: In ADP-Glo the light output rises with the ADP produced.

Data set [2] relates to Fibroblast-like synoviocytes (FLS) from patients with rheumatoid arthritis. As to the kind of experiment: inflammatory mediators (IL6, IL8, MCP-1) by ELISA in FLS stimulated with TNF-alpha. In kind it is cell-based, human. Conditions: synoviocytes, TNFa + compound 100 uM. The method, then: Fibroblast-like synoviocytes (FLS) from patients with rheumatoid arthritis (RA) were obtained at the time of synovectomy or joint replacement. All RA patients fulfilled the American College of Rheumatology […] criteria for the diagnosis of RA (Arnett FC y cols. 1988 Arthritis Rheum 31(3):315-24).
Synovial tissue was minced and incubated with 10 μg/ml collagenase in serum-free Dulbecco modified Eagle medium (DMEM; Gibco Invitrogen, Barcelona, Spain) for 3 h at 37° C. After digestion, FLS were filtered through a nylon cell strainer (BD Falcon, Franklin Lakes, USA), washed extensively, and cultured in DMEM supplemented with 10% v/v fetal calf serum, 1% penicillin-streptomycin, and 1% L-glutamine (all reagents from PAA, Laboratories GmbH) in a humidified 5% C02 atmosphere. Adherent cells at 80-90% confluence were trypsinised and diluted at a split ratio of 1:3. FLS from 4 patients and between passages 3 to 8 were used for all experiments.
Enzyme-Linked Immunosorbent Assay (ELISA): RA FLS (1×10^4 cells/well) were cultured in DMEM 1% FCS in 96 well plates and treated with p-p38 inhibitors for 1 h. After, they were stimulated with TNF-α (10 ng/ml, Sigma Aldrich) and both treatments were present in the culture throughout the experiment. The supernatants were harvested at 18 h after treatment and assayed for IL6, IL8/CXCL8 and monocyte chemoattractant protein (MCP)-1/CCL2 by ELISA according to the manufacturer's instructions (BD Bioscience, San Jose, Calif., USA).

Data set [3] deals with T2, p38alpha wt (Homo sapiens, UniProt Q16539).
T2 construct: made in house; host or cells: E. coli XL10-Gold
Put plainly: site-mutated p38 phosphorylation cascade assay, wild type. In kind it is biochemical. Conditions: compound 10 uM. The method, then:
as §1
(§2) Replacement of specific residues arginine 186 and 189 of p38α (pGEX4T-1-p38α) for alanine was performed with the QuikChange Lightining Site-Directed Mutagenesis Kit (Agilent Technologies). The following oligonucleotides were used for the arginine 186 to alanine substitution: forward primer: 5′-SEQ ID NO 7-3′; reverse primer: 5′-SEQ ID NO 8-3′. Oligonucleotides used for the arginine 189 to alanine substitution were: forward primer: 5′-SEQ ID NO 9-3′; reverse primer: 5′-SEQ ID NO 10-3′. Mutations were validated by sequencing (Genomic Unit, Parque Cientifico de Madrid). E. coli XL10-Gold ultracompentent cells (Agilent Technologies) were transformed with the vector plasmids containing p38αWT and mutants. For the expression of recombinant p38α transformed cells were cultured overnight at 37° C. in 50 ml of fresh LB medium containing ampicillin (100 μg/ml). After that, culture was diluted in fresh LB to A595=0.4 and grown for approximately 1 h at 37° C. until exponential growth and then induced with Isopropyl-β-D-thiogalactopyranoside (IPTG) 1 mM for 5 h. The cells were collected by centrifugation and cell pellet were resuspended in 50 ml of cold lysis buffer: PBS pH 7.4, EDTA 10 mM, PMSF 1 mM, Benzamidine 0.2 mM, DTT 5 mM, Triton X-100 1% and Lysozyme 1 mg/ml. The soluble and insoluble fractions were separated by centrifugation (16,000 g for 20 min). The soluble fraction was incubated for 2 hours with 1 ml of pre-equilibrated Glutathione Sepharose 4B (GE Healthcare) and the resin was extensively washed in a column with 200 ml of binding buffer: PBS, PMSF 1 mM and benzamidine 0.2 mM. Proteins were eluted with 1 ml of Tris-HCl 50 mM pH 8.0 and reduced glutathione 20 mM. 20% glycerol was added to purified proteins and stored at −80° C. Protein concentration and purity was assessed by SDS-PAGE. Kinase activity was measured by ADP-glo kit using MKK6 as activator and ATF2 as substrate. Activity recorded for p38αR186A and p38αR189A were 15.5% and 4.8%, respectively (n=4) related to wild type protein.

Data set [4] addresses T3, p38αR186A (Homo sapiens, UniProt Q16539, R186A).
T3 construct: made in house; host or cells: E. coli XL10-Gold
As to the kind of experiment: site-mutated p38 phosphorylation cascade assay, R186A mutant. In kind it is biochemical. The conditions noted are these: compound 10 uM. The method, then:
as §1, §2

Data set [5] deals with T4, p38αR189A (Homo sapiens, UniProt Q16539, R189A).
T4 construct: made in house; host or cells: E. coli XL10-Gold
As to the kind of experiment: site-mutated p38 phosphorylation cascade assay, R189A mutant. It counts as biochemical. The conditions noted are these: compound 10 uM. Here is the method: as §1, §2

Data set [6] has as its system TNF-α secretion, THP-1 cells. Put plainly: Inhibition of TNF-α secretion by LPS-stimulated THP-1. In kind it is cell-based. The conditions noted are these: Homo sapiens, THP-1, 3 h, monocytes with LPS, read-out: TNF abetment. The method, then:
Inhibition of TNF-α Secretion by a Human Monocytic Cell Line, THP-1.
THP-1 cells, growing in log phase, were collected by centrifugation and resuspended in RPMI 1640 (Sigma Aldrich), to a final cell concentration of 2×10^6 cells/ml. Cells were plated into 24-well plates (BD Biosciences). Dilutions of compounds in dimethyl sulfoxide (DMSO) were added to the culture to a final concentration M. The final DMSO concentration was 0.5%. The cells […] suspensions were preincubated with compounds for 1 h at 37° C. in a 5% C02 humidified atmosphere before the addition of LPS (Sigma Aldrich, L2654) to a final concentration of 2 μg/ml. After that, cells were incubated for 3 h followed by centrifugation to pellet cells. Cell supernatants were stored at 4° C. until Human analysis for TNF-α content. TNF-α levels were determined by ELISA (TNF Biotrak, GE Healthcare) following the manufacturer's directions. The percentage inhibition was calculated for each compound concentration tested, and the IC50 was calculated for each compound.

Data set [7] deals with THP-1 cells. Put plainly: survival of monocytes with LPS. It counts as cell-based, human.
In data set [8] the target is ATF2 (ProQinase) (Homo sapiens (Human)) (UniProt P15336).
The target in data set [9] is p38αR186A (Homo sapiens).
In data set [10] the target is p38αR189A (Homo sapiens).

T4 sequence (Q16539 whole entry R189A): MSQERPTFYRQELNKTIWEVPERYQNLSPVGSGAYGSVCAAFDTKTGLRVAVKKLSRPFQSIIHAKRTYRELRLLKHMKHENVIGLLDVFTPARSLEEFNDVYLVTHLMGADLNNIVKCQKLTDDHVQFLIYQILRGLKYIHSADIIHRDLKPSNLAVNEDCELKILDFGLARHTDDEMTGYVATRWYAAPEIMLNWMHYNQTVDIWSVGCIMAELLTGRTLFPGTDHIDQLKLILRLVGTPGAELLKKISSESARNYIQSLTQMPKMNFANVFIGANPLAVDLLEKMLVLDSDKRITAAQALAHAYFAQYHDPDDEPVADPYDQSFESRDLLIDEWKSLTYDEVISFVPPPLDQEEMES
T3 sequence (Q16539 whole entry R186A): as the sequence (Q16539 whole entry R189A) above, with R186A, A189R counted along it
T1 sequence (Q16539 whole entry): as the sequence (Q16539 whole entry R189A) above, with A189R counted along it
T2 sequence (Q16539 whole entry): as the sequence (Q16539 whole entry R189A) above, with A189R counted along it

With `OCCOc1nc(OCCO)nc(OCCO)n1` [Compound 8], the inhibition at 100 µM in data set [1] amounted to 20%. Further, in data set [2], the “% of inflammatory mediators production in the presence of compounds, IL6” value is 66.5%; the “% of inflammatory mediators production in the presence of compounds, IL8” value worked out at 83.4%; the “% of inflammatory mediators production in the presence of compounds, MCP-1” value amounted to 75.4%.

On to `Nc1ccc(OCC(O)C[n+]2ccc(CCS(=O)(=O)[O-])cc2)cc1` (stereo not shown) [Compound 4], for which the inhibition at 10 µM in data set [1] was found to be 8%.

As for `O=S(=O)(c1cnccc1N1CCN(CCO)CC1)N1CCOCC1` [Compound 11], the inhibition at 10 µM in data set [1] turned out to be 1%.

For `Oc1nc(N/N=C/c2ccc3c(c2)OCO3)nc(N2CCOCC2)n1` [Compound 7], the inhibition at 10 µM in data set [1] was found to be 16%.

Turning to `CC(C)n1nnnc1C(c1ccc(O)cc1)N1CCN(c2nc3ccccc3s2)CC1` (stereo not shown) [Compound 5], in data set [1], the inhibition at 10 µM is 28%.

For the molecule `CCOC(=O)N1CCN(C2=Nc3nnnn3C3CC4CN(Cc5ccccc5)CCC4C23)CC1` (stereo not shown) [Compound 32], the inhibition at 10 µM in [3] worked out at 23%; in data set [4], 17%; in [5] it was 9%; in data set [6], 21%. In addition, the “% of inflammatory mediators production in the presence of compounds, IL6” value in data set [2] was found to be 52.4%. In data set [2], the “% of inflammatory mediators production in the presence of compounds, IL8” value amounted to 34.8%. Moreover, the “% of inflammatory mediators production in the presence of compounds, MCP-1” value in data set [2] stood at 22.7%. The same molecule displayed a Cell survival in data set [7] (10 uM) of 99%.

Regarding `CCOC(=O)c1ccc(Nc2nc3nonc3nc2N2CCC(Oc3ccc(Cl)cc3)CC2)cc1` [Compound 25], the inhibition at 10 µM worked out at 59% in [3], 14% in data set [4], 30% in data set [5] and 102% in [6]. In addition, the inhibition at 0.1 µM in data set [6] turned out to be 12%. For the same molecule, the inhibition at 1 µM in [6] turned out to be 61%. Also, the Cell survival in data set [7] (0.1 uM) was found to be 88%; in [7] (1 uM), 61%; in data set [7] (10 uM), 42%.

For the molecule `CCOC(=O)c1ccc(Nc2nc3nonc3nc2Nc2ccc(C(=O)c3ccccc3)cc2)cc1` [Compound 26], the inhibition at 10 µM came out at 73% in data set [3], 40% in data set [4], 28% in [5] and 8% in data set [6]. In data set [6], the inhibition at 0.1 µM was found to be 27%. The inhibition at 1 µM in [6] came out at 30%. In addition, the values for the Cell survival in data set [7] (0.1 uM), in [7] (1 uM) and in data set [7] (10 uM) were 86%, 87% and 83%, respectively.

With p38αR189A (enzyme), in [8], the kinase activity (ADP-glo kit) (% related to wild type protein) is 4.8.

In the case of `CCOC(=O)c1ccc(Nc2nc3nonc3nc2N2CCC(Oc3ccccc3OC)CC2)cc1` [Compound 16], the inhibition at 10 µM in [3] was 32%; in [4] it was 15%; in data set [5], 17%; in [6], 35%. The inhibition at 0.1 µM in data set [6] was found to be 16%. In data set [6], the inhibition at 1 µM came to 26%. In addition, the Cell survival in [7] (0.1 uM) was 88%; in [7] (1 uM), 95%; in data set [7] (10 uM), 93%.

For `Cc1cc(C(=O)NCC(C)C)ccc1Nc1nc2nonc2nc1N1CCC(Cc2ccccc2)CC1` [Compound 21], the inhibition at 10 µM turned out to be 83% in [3], 48% in [4], 38% in data set [5] and 20% in data set [6]. Further, in data set [6], the inhibition at 0.1 µM was -15%. The inhibition at 1 µM in data set [6] was 18%. Moreover, the values for the Cell survival in data set [7] (0.1 uM), in data set [7] (1 uM) and in data set [7] (10 uM) were 98%, 95% and 94%, respectively.

For the molecule `CC(C)NC(=O)c1cccc(Nc2nc3nonc3nc2N2CCC(Cc3ccccc3)CC2)c1` [Compound 20], the inhibition at 10 µM in data set [3] was 71%; in [4], 38%; in [5], 22%; in data set [6], 36%. Further, in [6], the inhibition at 0.1 µM is -9%. Also, the inhibition at 1 µM in data set [6] came to 55%. Besides, the Cell survival in data set [7] (0.1 uM) is 101%; in [7] (1 uM) it was 96%; in data set [7] (10 uM) it was 81%.

In the case of `CCOC(=O)c1ccc(Nc2nc3nonc3nc2N2CCC(Oc3ccncc3)CC2)cc1` [Compound 33], the inhibition at 10 µM in data set [3] worked out at 47%; in data set [4], 23%; in data set [5], 19%; in [6] it was 62%. In addition, the inhibition at 0.1 µM in [6] is 21%. Also, the inhibition at 1 µM in data set [6] was found to be 46%. Moreover, the results for the Cell survival in data set [7] (0.1 uM), in data set [7] (1 uM) and in data set [7] (10 uM) were 100%, 99% and 97%, respectively.

With “MKK6 (ProQinase) (from UniProt P52564) (enzyme)”, the kinase activity of the cascade MKK6/p38α/ATF2 (ADP-glo kit) (% related to wild type protein) turned out to be 15.5 in [9] and 4.8 in data set [10].

Consider `COc1ccccc1NC(=O)C[C@H](NCCCO)C(=O)O` [Compound 3], for which the inhibition at 100 µM in [1] was 17%.

Consider `CCOCCCNc1nc2nnnn2c2sc3c(c12)CCN(Cc1ccccc1)C3` [Compound 6], for which the inhibition at 10 µM in data set [1] was 107%.

For the molecule p38αR186A (enzyme), in data set [8], the kinase activity (ADP-glo kit) (% related to wild type protein) was 15.5.
